From patent publication US20100069481A1, “METHODS AND COMPOSITIONS FOR THE TREATMENT OF CANCER” (Bionovo, Inc., priority 2008, published 2010)

How the values were obtained:
[1] = system: breast cancer cells (MDA MB 231, SKBr3); test: induction of ROS, CM-H2DCFDA staining; assay type: cell-based, human
Procedure: (§1) 1. Induction of the loss of the mitochondrial transmembrane potential (MTP). […] 2. Induction of reactive oxygen species (ROS). […] 3. […] 4. Compounds were tested for induction of DNA damage using test known as comet assay that allows detection of DNA damage in individual cells. […] 6. The mode of cell death (i.e., apoptosis versus necrosis) was studied using several criteria: conversion of cells to positivity for binding Annexin V; DNA fragmentation (characteristic of apoptotic death) and decrease in cellular ATP levels (commonly observed during necrotic death) (FIG. 5). 1. Induction of the loss of the mitochondrial transmembrane potential (MTP). […] 2. Induction of reactive oxygen species (ROS). […] 3. […] 4. Compounds were tested for induction of DNA damage using test known as comet assay that allows detection of DNA damage in individual cells. […] 6. The mode of cell death (i.e., apoptosis versus necrosis) was studied using several criteria: conversion of cells to positivity for binding Annexin V; DNA fragmentation (characteristic of apoptotic death) and decrease in cellular ATP levels (commonly observed during necrotic death) (FIG. 5).
DCFDA is nonfluorescent in reduced form and is readily membrane-permeant. Cellular esterases cleave its acetate groups. The thiol-reactive chloromethyl group then binds to cellular thiols, trapping the dye inside the cell, where oxidation converts it to the fluorescent form. […] It is relatively insensitive to oxidation by superoxide.
FIG. 1. […] The indicated compounds were added to cells at 20 μg/ml growth medium, followed by addition of 10 μM CM-H2 DCFDA. Inhibitor of mitochondrial respiration, NaN3, was added at 10 mM. After 30 minute incubation, cells were washed in PBS and analyzed on FACScan for fluorescence.

[2] = system: breast cancer cells (MDA MB 231, SKBr3); test: DNA damage, comet assay; assay type: cell-based, human
Procedure: as §1

[3] = system: breast cancer cells (MDA MB 231, SKBr3); test: mode of cell death: Annexin V binding, DNA fragmentation; assay type: cell-based, human
Procedure: as §1

[4] = system: breast cancer cells (MDA MB 231, SKBr3); test: cellular ATP levels, ATP bioluminescence; assay type: cell-based, human
Procedure: as §1

[5] = system: breast cancer cells (MDA MB 231, SKBr3); test: mitochondrially derived superoxide, MitoSOX staining; assay type: cell-based, human
Procedure: as §1

[6] = system: two different breast cancer cell lines; test: induction of ROS (fold), compounds alone and in combination; assay type: cell-based; details: Table 11
Procedure: In order to better understand the combined activities of the isolated species, several flavanones and flavones isolated from Scutellaria barbata were tested individually and in combination. The flavanones and flavones tested are depicted in FIG. 8. These compounds 1-8 from were tested for induction of ROS, DNA damage and cell death, as described in Example 2.
The results set forth in Tables 10 and 11 were confirmed by performing the experiments in two different breast cancer cell lines.

Structure (SMILES) | induction of cellular ROS [1] | induction of DNA damage [2] | cell death and its mode [3] | cellular ATP levels [4] | generation of mitochondrial superoxide [5] | Induction of ROS (fold) [6] [fold]
O=C1CC(c2ccc(O)cc2)Oc2cc(O)c(O)c(O)c21 (stereo not drawn) [Carthamidin] | induce ROS, but of extra-mitochondrial origin | induce DNA damage |  |  |  | 
O=c1cc(-c2ccc(O)cc2)oc2cc(O)cc(O)c12 [Apigenin] |  | do not induce DNA damage | induce significant cell death characterized as apoptotic | slight but consistent increase in ATP levels | induce generation of superoxide whose origin is identified as mitochondrial | 
O=c1cc(-c2ccc(O)cc2)oc2c(O)c(O)cc(O)c12 [Isoscutellarein] | induce ROS, but of extra-mitochondrial origin | induce DNA damage | cell death that has hallmarks of programmed necrosis |  |  | 
O=c1cc(-c2ccc(O)cc2)oc2cc(O)cc(O)c12 [cmpd 4] |  |  |  |  |  | 0.6
O=c1cc(-c2ccc(O)cc2)oc2cc(O)c(O)c(O)c12 [Scutellarein] | induce ROS, but of extra-mitochondrial origin | induce DNA damage | cell death that has hallmarks of programmed necrosis |  |  | 
O=C1CC(c2ccc(O)cc2)Oc2c(O)c(O)cc(O)c21 (stereo not drawn) [Isocarthamidin] | induce ROS, but of extra-mitochondrial origin | induce DNA damage |  |  |  | 
